“Also recorded” adds a separate entry of the source. Read-outs that look alike come from different tables or passages of the source. Values belong to the molecule of their own block, whether it stands above or below them. Non-standard residues stand in square brackets, D forms with d. Residues, ends and D or L forms follow the SMILES beside them. NMeF = CN[C@@H](Cc1ccccc1)C(=O)O; Cha = N[C@@H](CC1CCCCC1)C(=O)O; dCha = N[C@H](CC1CCCCC1)C(=O)O
Legend:
C5a receptor [1] = molecular target: T1, C5a receptor (Homo sapiens, UniProt P21730); test: biochemical; type: binding
T1 construct: followed by a 20 μL aliquot of neutrophil membrane; endogenous in cells
T1 sequence (P21730 1-350): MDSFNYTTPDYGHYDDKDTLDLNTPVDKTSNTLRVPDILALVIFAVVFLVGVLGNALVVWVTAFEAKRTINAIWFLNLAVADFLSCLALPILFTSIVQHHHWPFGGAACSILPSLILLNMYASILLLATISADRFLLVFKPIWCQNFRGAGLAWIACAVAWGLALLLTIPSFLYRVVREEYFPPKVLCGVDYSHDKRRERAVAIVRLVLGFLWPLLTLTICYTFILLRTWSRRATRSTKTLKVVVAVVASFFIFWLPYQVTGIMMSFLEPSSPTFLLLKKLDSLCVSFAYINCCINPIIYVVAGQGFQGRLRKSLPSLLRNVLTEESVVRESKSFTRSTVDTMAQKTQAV
Description: Initially, we attempted to conduct binding studies with ^125 I radiolabeled C009: ^125 I-Tyr Phe Lys Ala Cha Cha Leu dPhe Arg, SEQ.ID:1:, wherein Cha is cyclohexylalanine, and dPhe is the D isomer of phenylalanine. This compound is a C5a agonist displaying a Ki for C5a of 8 nM. The presence of the tyrosine allowed us to radioiodinate the peptide and establish a binding assay in which both C5a (IC50=0.1 nM) and unlabeled C009 (IC50 =10 nM) inhibit the binding of ^125 I-C009 with concentration dependencies similar to those obtained from competition experiments against ^125 I-C5a.
In FIG. 1, unlabeled C013 is used to compete with ^125 I-labeled C5a. […] In FIG. 2, the C013 is ^125 I labeled. Unlabeled C5a and unlabeled C013 are each used to compete the labeled C013 from C5a binding sites on the membranes. […] In FIG. 3a, ^125 I-C5a is competed from its binding site by unlabeled C064 and unlabeled, natural C5a (as opposed to recombinant C5a, which, however, may also obviously may be used for these purposes). […] In FIG. 3b, the inverse experiment is shown, wherein ^125 I-C064 is displaced by unlabeled C064 and unlabeled nC5a.
Peptide (5 nMoles) are added to 40μL of 0.1 M sodium phosphate, pH 7.6, in a tube, followed by 2 mCi of ^125 I in 20 μL. 10 μL of a freshly made 0.5 mg/mL solution of chloramine T is then added. After 30 seconds of incubation, 10 μL of a freshly prepared 2 mg/mL solution of Na2 S2 O3 is added, the tube is vortexed, and the sample loaded onto a Vydac C4 reverse phase column. The column is developed with a TFA/acetonitrile gradient and the iodinated peptide is isolated. The material is stored at 4° C. in the elution buffer.
To 205 μL binding buffer (50 mM HEPES, pH 7.2, containing 5 mM MgCl2, 1mM CaCl2, 0.5% BSA) in a polypropylene tube is added 30,000CPM of the ^125 I peptide in 20 μL, and 5 μL of a known dilution of the test compound or diluent, followed by a 20 μL aliquot of neutrophil membrane [equivalent to 500,000 neutrophils; Rollins, T.E. et al., J. Biol Chem. 260:7157 (1985); see also U.S. Pat. No. 5,177,190, herein incorporated by reference].
The assay mixture is incubated for 2 hours at 29° C. Binding buffer (2 mL) is then added, the tube is vortexed, and the contents filtered over a Wattmann GF/C filter soaked in 0.33% polyethylenimine. An additional aliquot of binding buffer (2 mL) is added to the tube to rinse the tube, and is then used to wash the filter. The filters are removed from the apparatus and counted. Non-specific backgrounds are determined by performing assays in the presence of either 10 nM C5a, or 1 μM unlabeled peptide. Compounds which inhibit the binding of the labeled peptide are considered to be potential active compounds.

C5a receptor [2] = details: literature; cited from earlier work
chemokinetic response = details: Mollison et al.; cited from earlier work
neutrophils = details: Drapeau et al.; cited from earlier work
degranulation = details: Mollison et al., cited from earlier work
human neutrophils [3] = test: Inhibition of C5a induced degranulation (MPO release); type: cell-based
Description: (§1) FIG. 7A and 7B. […] These concentrations of the stimulating agents released 22% and 19% of the total cellular MPO, respectively.
(§2) This assay was performed on human neutrophils as previously reported and it is a measure of C5a or peptide induced exocytosis (Rollins, T. E. and Springer, M. S. (1985) J. Biol. Chem. 260, 7157-7160).

human neutrophils [4] = test: Inhibition of IL-8 induced degranulation (specificity control); type: cell-based; details: 8 nM IL-8, FIG. 7A
Description: as §1, §2

[5] = system: human neutrophil membranes; test: Inhibition of C5a stimulated GTPase activity; type: biochemical
Description: as §1
The method of Kupper et al. (Kupper, R. W., Dewald, B., Jakobs, K. H., Baggiolini, M. and Gierschik, P. (1992) Biochem. J. 282, 429-434) was adapted for use in microtiter plates. Neutrophil membranes were suspended in 50 mM triethanolamine-HCl, 5 mM MES, pH 7.3, containing 1 mM EDTA, 5 mM MgCl2, 143 mM NaCl, 0.16 % BSA, 1 mM ouabain, 1 mM AMP-PNP, 0.5 mM ATP, 2.5 U/mL creatine phosphokinase,. 10 mM creatine phosphate, 0.1 mM PMSF and 10 ng/mL each of leupeptin, aprotinin and chymostatin. 50 μL of membranes containing 1-5 μg protein were added to 50 μL of the same buffer containing the test agent and 0.25 μM [γ-^32 P]-GTP (2,000 cpm/pmol) in the wells of a U-shaped microtiter plate. After incubation for 15-30 rain at 29° C., 100 μL of a 10% (w/v) charcoal suspension in 100 mM H3 PO4 was added and plates were centrifuged at 2000 rpm for 5 min. 100 μL of the supernatant was transferred to an Optiplate microtiter plate and 100 μL of Microscint-40 scintillation cocktail was added. Plates were counted in a Packard TopCount microtiter plate counter.

[6] = labeled ligand 125I-C009, read-out: IC50 for inhibition of binding of 125I-C009

- IC50 (C5a receptor [1]; [6]): 10 nM
Molecule: CC(C)C[C@H](NC(=O)[C@H](CC1CCCCC1)NC(=O)[C@H](CC1CCCCC1)NC(=O)[C@H](C)NC(=O)[C@H](CCCCN)NC(=O)[C@H](Cc1ccccc1)NC(=O)[C@@H](N)Cc1ccc(O)cc1)C(=O)N[C@H](Cc1ccccc1)C(=O)N[C@@H](CCCNC(=N)N)C(=O)O [C009, Tyr Phe Lys Ala Cha Cha Leu dPhe Arg] (H-YFKA[Cha][Cha]L[dF]R-OH)
- change of binding affinity by radioiodination (C5a receptor [1]): about a four-fold loss in binding affinity

Molecule: CN[C@@H](Cc1ccccc1)C(=O)N[C@@H](CCCCN)C(=O)N1CCC[C@H]1C(=O)N[C@H](CC1CCCCC1)C(=O)N[C@@H](Cc1ccccc1)C(=O)N[C@H](CCCNC(=N)N)C(=O)O [C026, NMeF--K--P-dCha-F-dR] (H-[NMeF]KP[dCha]F[dR]-OH)
- agonist properties in words (C5a receptor [2]): reduced agonist properties; also recorded: behaved as an agonist in other assays
- chemokinetic response (chemokinetic response): only a small chemokinetic response
- stimulation of superoxide release from neutrophils (neutrophils): failed to stimulate superoxide release from neutrophils
- degranulating activity in words (degranulation): not only failed to stimulate degranulation, it acted as an antagonist for this property
- degranulating activity in words (degranulation; listed as NMeF--K--P-dCha-F-dR): totally devoid of degranulating activity

Molecule: CN[C@@H](Cc1ccccc1)C(=O)N[C@@H](CCCCN)C(=O)N1CCC[C@H]1C(=O)N[C@H](CC1CCCCC1)C(=O)N[C@@H](CC1CCCCC1)C(=O)N[C@H](CCCNC(=N)N)C(=O)O [C028, MePhe Lys Pro dCha Cha dArg] (H-[NMeF]KP[dCha][Cha][dR]-OH)
- degranulating activity in words (degranulation): exhibited normal degranulating activity

- IC50 (human neutrophils [3]; FIG. 7A, challenge 0.4 nM C5a): 100 nM
- IC50 ([5]; FIG. 7B, 3 nM C5a): 3000 nM
Molecule: CN[C@@H](Cc1ccccc1)C(=O)N[C@@H](CCCCN)C(=O)N1CCC[C@H]1C(=O)N[C@H](CC1CCCCC1)C(=O)N[C@@H](Cc1c[nH]c2ccccc12)C(=O)N[C@H](CCCNC(=N)N)C(=O)O [C089]
- inhibition of C5a stimulated degranulation in words (human neutrophils [3]): inhibits C5a stimulated degranulation
- effect on IL-8 induced degranulation (human neutrophils [4]): little effect on IL-8 induced degranulation
- inhibition of C5a stimulated G protein activation in words [5]: inhibits C5a stimulated degranulation and G protein activation

- IC50 (C5a receptor [1]; [6]): 0.1 nM
- IC50 (C5a receptor [1]; labeled ligand 125I-C013, read-out: IC50 exhibited by the unlabeled ligand): 0.15 nM
- IC50 (C5a receptor [1]; labeled ligand 125I-C064, read-out: IC50 exhibited by the unlabeled ligand): 0.093 nM
B1: C5a: 74 amino acid protein derived from the fifth component of serum complement during complement activation (protein, UniProt P01031 678-751, looked up)
C5a anaphylatoxin: TLQKKIEEIAAKYKHSVVKKCCYDGACVNNDETCEQRAARISLGPRCIKAFTECCVVASQLRANISHKDMQLGR
modifications: C5a anaphylatoxin

— patent publication US5614370A, “Assay to identify human C5a antagonists and agonists” (Merck & Co., Inc., priority 1994, dated 1997)
